Laboratory results reported in PMC9853328, “Potent Platinum(IV) Prodrugs That Incorporate a Biotin Moiety to Selectively Target Cancer Cells” (Pharmaceutics, 2022).
Read-outs that look alike come from different tables or passages of the source.

Legend:
[1] = system: ADDP (subclone of A2780) versus A2780 ovarian cancer cell lines; experiment: Resistance factor, GI50 in ADDP/GI50 in A2780; format: cell-based
HT29 colon cancer cells [2] = system: HT29 colon cancer cells; parameters: method as in earlier work; settings: MTT, same method, taken from the literature; ref [18],[46],[47]; read-out: GI50 ± SEM, HT29; cited from earlier work
U87 glioblastoma cells [3] = system: U87 glioblastoma cells; parameters: method as in earlier work; settings: MTT, same method, taken from the literature; ref [18],[46],[47]; read-out: GI50 ± SEM, U87; cited from earlier work
[4] = system: MCF-7 breast cancer cells; parameters: method as in earlier work; settings: MTT, same method, taken from the literature; ref [18],[46],[47]; read-out: GI50 ± SEM, MCF-7; cited from earlier work
[5] = system: A2780 ovarian cancer cells; parameters: method as in earlier work; settings: MTT, same method, taken from the literature; ref [18],[46],[47]; read-out: GI50 ± SEM, A2780; cited from earlier work
H460 lung cancer cells [6] = system: H460 lung cancer cells; parameters: method as in earlier work; settings: MTT, same method, taken from the literature; ref [18],[46],[47]; read-out: GI50 ± SEM, H460; cited from earlier work
A431 skin cancer cells [7] = system: A431 skin cancer cells; parameters: method as in earlier work; settings: MTT, same method, taken from the literature; ref [18],[46],[47]; read-out: GI50 ± SEM, A431; cited from earlier work
[8] = system: Du145 prostate cancer cells; parameters: method as in earlier work; settings: MTT, same method, taken from the literature; ref [18],[46],[47]; read-out: GI50 ± SEM, Du145; cited from earlier work
[9] = system: BE2-C neuroblastoma cells; parameters: method as in earlier work; settings: MTT, same method, taken from the literature; ref [18],[46],[47]; read-out: GI50 ± SEM, BE2-C; cited from earlier work
SJ-G2 glioblastoma cells [10] = system: SJ-G2 glioblastoma cells; parameters: method as in earlier work; settings: MTT, same method, taken from the literature; ref [18],[46],[47]; read-out: GI50 ± SEM, SJ-G2; cited from earlier work
[11] = system: MIA pancreas cancer cells; parameters: method as in earlier work; settings: MTT, same method, taken from the literature; ref [18],[46],[47]; read-out: GI50 ± SEM, MIA; cited from earlier work
[12] = system: non-cancerous MCF10A breast cell line; parameters: method as in earlier work; settings: MTT, same method, taken from the literature; ref [18],[46],[47]; read-out: GI50 ± SEM, MCF10A; cited from earlier work
[13] = system: cisplatin-resistant ADDP ovarian (subclone of A2780) cancer cells; parameters: method as in earlier work; settings: MTT, same method, taken from the literature; ref [18],[46],[47]; read-out: GI50 ± SEM, ADDP; cited from earlier work
HT29 colon cancer cells [14] = experiment: MTT in vitro cytotoxicity assay, HT29; format: cell-based; settings: Homo sapiens, HT-29; MTT, 72 h drug exposure, n = 3; read-out: GI50 ± SEM, HT29
Protocol: (§1) The in vitro cytotoxicity assays were undertaken at Calvary Mater Hospital, Waratah, NSW, Australia, following a method previously published in the literature. A stock solution for each compound was prepared in DMSO (30 mM) and stored at −20 °C. The cell lines used in the study include HT29 colon, U87 glioblastoma, MCF-7 breast, A2780 ovarian, H460 lung, A431 skin, Du145 prostate, BE2-C neuroblastoma, SJ-G2 glioblastoma, MIA pancreas, and cisplatin-resistant ADDP ovarian (subclone of A2780) cancer cells, as well as the non-cancerous-derived MCF10A breast cell line. The cancer cell lines were cultured in a humidified atmosphere 5% CO2 at 37 °C and maintained in Dulbecco’s modified Eagle’s medium (Trace Biosciences, Sydney, Australia), supplemented with 10% foetal bovine serum, sodium bicarbonate (10 mM), penicillin (100 IU/mL), streptomycin (100 µg/mL), and glutamine (4 mM). The non-cancerous MCF10A cell line was maintained in DMEM:F12 (1:1) cell culture media, with 5% heat inactivated horse serum, supplemented with penicillin (50 IU/mL), streptomycin (50 µg/mL), glutamine (2 mM), HEPES (20 mM), epidermal growth factor (20 ng/mL), hydrocortisone (500 ng/mL), cholera toxin (100 ng/mL), and insulin (10 µg/mL). Cells were plated in duplicate in medium (100 µL) at a density of 2500–4000 cells per well in 96-well plates. On day 0, (24 h after plating) when the cells were in logarithmic growth, medium (100 μL) with or without the test agent was added to each well. The growth inhibitory effects were evaluated after 72 h drug exposure, using the MTT (3-(4,5-dimethylthiazol-2-yl)-2,5-diphenyltetrazolium bromide) assay, with the absorbance read at 540 nm. An eight-point dose–response curve was produced, which was used to determine the concentration at which growth was inhibited by 50% (GI50). This calculation was based on the difference between the optical density values on day 0 and those at the end of drug exposure. […] Experiments were conducted on three separate occasions and GI50 values were reported as the mean and standard error of the mean.

U87 glioblastoma cells [15] = experiment: MTT in vitro cytotoxicity assay, U87; format: cell-based; settings: 72 h drug exposure, n = 3, read-out: GI50 ± SEM, U87
Protocol: as §1

[16] = system: MCF-7 breast cancer cells; experiment: MTT in vitro cytotoxicity assay, MCF-7; format: cell-based; settings: Homo sapiens, MCF7; MTT, 72 h drug exposure, n = 3; read-out: GI50 ± SEM, MCF-7
[17] = system: A2780 ovarian cancer cells; experiment: MTT in vitro cytotoxicity assay, A2780; format: cell-based; settings: Homo sapiens, A2780, 72 h drug exposure, n = 3, read-out: GI50 ± SEM, A2780
Protocol: as §1

H460 lung cancer cells [18] = experiment: MTT in vitro cytotoxicity assay, H460; format: cell-based; settings: Homo sapiens, NCI-H460, 72 h drug exposure, n = 3, read-out: GI50 ± SEM, H460
Protocol: as §1

A431 skin cancer cells [19] = experiment: MTT in vitro cytotoxicity assay, A431; format: cell-based; settings: Homo sapiens, A-431, 72 h drug exposure, n = 3, read-out: GI50 ± SEM, A431
Protocol: as §1

[20] = system: Du145 prostate cancer cells; experiment: MTT in vitro cytotoxicity assay, Du145; format: cell-based; settings: Homo sapiens, DU-145; MTT, 72 h drug exposure, n = 3; read-out: GI50 ± SEM, Du145
Protocol: as §1

[21] = system: BE2-C neuroblastoma cells; experiment: MTT in vitro cytotoxicity assay, BE2-C; format: cell-based; settings: Homo sapiens, BE(2)-C, 72 h drug exposure, n = 3, read-out: GI50 ± SEM, BE2-C
Protocol: as §1

SJ-G2 glioblastoma cells [22] = experiment: MTT in vitro cytotoxicity assay, SJ-G2; format: cell-based; settings: SJ-G2, 72 h drug exposure, n = 3, read-out: GI50 ± SEM, SJ-G2
Protocol: as §1

[23] = system: MIA pancreas cancer cells; experiment: MTT in vitro cytotoxicity assay, MIA; format: cell-based; settings: 72 h drug exposure, n = 3, read-out: GI50 ± SEM, MIA
Protocol: as §1

[24] = system: non-cancerous MCF10A breast cell line; experiment: MTT in vitro cytotoxicity assay, MCF10A; format: cell-based; settings: Homo sapiens, MCF-10A, 72 h drug exposure, n = 3, read-out: GI50 ± SEM, MCF10A
Protocol: as §1

[25] = system: cisplatin-resistant ADDP ovarian (subclone of A2780) cancer cells; experiment: MTT in vitro cytotoxicity assay, ADDP; format: cell-based; settings: Homo sapiens, A2780, 72 h drug exposure, n = 3, read-out: GI50 ± SEM, ADDP
Protocol: as §1

Row | Structure (SMILES) | Resistance factor (RF) [1] | GI50 (HT29 colon cancer cells [2]) [nM] | GI50 (U87 glioblastoma cells [3]) [nM] | GI50 [4] [nM] | GI50 [5] [nM] | GI50 (H460 lung cancer cells [6]) [nM] | GI50 (A431 skin cancer cells [7]) [nM] | GI50 [8] [nM] | GI50 [9] [nM] | GI50 (SJ-G2 glioblastoma cells [10]) [nM] | GI50 [11] [nM] | GI50 [12] [nM] | GI50 [13] [nM] | further results
1 | Cc1c(C)c2ccc[n+]3c2c2c1ccc[n+]2[Pt-2]31[NH2+][C@H]2CCCC[C@@H]2[NH2+]1.[Cl-].[Cl-] [56MESS(II)] | 0.692 | 15 ± 6.2 | 76 ± 8.7 | 33 ± 12 | 39 ± 7.7 | 28 ± 4.7 | 36 ± 11 | 10 ± 1.3 | 86 ± 3 | 150 ± 6.7 | 22 ± 0.88 | 25 ± 10 | 27 ± 4.1 | 
2 | Cc1c(C)c2ccc[n+]3c2c2c1ccc[n+]2[Pt-2]31([OH])([OH])[NH2+][C@H]2CCCC[C@@H]2[NH2+]1.O=[N+]([O-])[O-].O=[N+]([O-])[O-] [56MESS(IV)] | 3.036 | 36 ± 7.1 | 190 ± 23 | 480 ± 140 | 56 ± 7.1 | 190 ± 150 | 120 ± 22 | 15 ± 2.6 | 240 ± 22 | 210 ± 45 | 43 ± 2.5 | 61 ± 7.3 | 170 ± 120 | 
3 | O=C(O)CCCC[C@@H]1SC[C@@H]2NC(=O)N[C@@H]21 [Biotin, biotin] |  |  |  |  |  |  |  |  |  |  |  |  |  | GI50 (HT29 colon cancer cells [14]): > 50000 nM; GI50 (U87 glioblastoma cells [15]): > 50000 nM; GI50 [16]: > 50000 nM; GI50 [17]: > 50000 nM; GI50 (H460 lung cancer cells [18]): > 50000 nM; GI50 (A431 skin cancer cells [19]): > 50000 nM; GI50 [20]: > 50000 nM; GI50 [21]: > 50000 nM; GI50 (SJ-G2 glioblastoma cells [22]): > 50000 nM; GI50 [23]: > 50000 nM; GI50 [24]: > 50000 nM; GI50 [25]: > 50000 nM
4 | N.N.O=C([O-])C1(C(=O)[O-])CCC1.[Pt+2] [Carboplatin, carboplatin] |  | > 50000 | > 50000 | > 50000 | 9200 ± 2900 | 14000 ± 1000 | 24300 ± 2200 | 14700 ± 1200 | 18700 ± 1200 | 5700 ± 200 | > 50000 | > 50000 | > 50000 | 
5 | O=C1[O][Pt]2([NH][C@@H]3CCCC[C@H]3[NH]2)[O]C1=O [Oxaliplatin, oxaliplatin] | 5.138 | 900 ± 200 | 1800 ± 200 | 500 ± 100 | 160 | 1600 ± 100 | 4100 ± 500 | 2900 ± 400 | 900 ± 200 | 3000 ± 1200 | 900 ± 200 |  | 822 ± 130 | 
